The experiment concerns the target human full-length MKNK1 (Homo sapiens (Human), UniProt Q9BUB5, T344D). In words: MKNK1 kinase high ATP assay (TR-FRET). Type of experiment: biochemical. To be noted: 2 mM ATP, 15 min preincubation with enzyme, GST-MKNK1 (T344D). The procedure:
MKNK1 Kinase High ATP Assay
MKNK1-inhibitory activity at high ATP of compounds of the present invention after their preincubation with MKNK1 was quantified employing the TR-FRET-based MKNK1 high ATP assay as described in the following paragraphs.
A recombinant fusion protein of Glutathione-S-Transferase (GST, N-terminally) and human full-length MKNK1 (amino acids 1-424 and T344D of accession number BAA 19885.1), expressed in insect cells using baculovirus expression system and purified via glutathione sepharose affinity chromatography, was purchased from Carna Biosciences (product no 02-145) and used as enzyme. As substrate for the kinase reaction the biotinylated peptide biotin-Ahx-IKKRKLTRRKSLKG (SEQ ID NO: 1) (C-terminus in amide form) was used, which can be purchased e.g. from the company Biosyntan (Berlin-Buch, Germany)
For the assay 50 nL of a 100 fold concentrated solution of the test compound in DMSO was pipetted into a black low volume 384 well microtiter plate (Greiner Bio-One, Frickenhausen, Germany), 2 μL of a solution of MKNK1 in aqueous assay buffer [50 mM HEPES pH 7.5, 5 mM MgCl2, 1.0 mM dithiothreitol, 0.005% (v/v) Nonidet-P40 (Sigma)] was added and the mixture was incubated for […] at 22° C. to allow pre-binding of the test compounds to the enzyme before the start of the kinase reaction. Then the kinase reaction was started by the addition of 3 μL of a solution of adenosine-tri-phosphate (ATP, 3.3 mM=>final conc. in the 5 μL assay volume is 2 mM) and substrate (0.1 μM=>final conc. in the 5 μL assay volume is 0.06 μM) in assay buffer and the resulting mixture was incubated for a reaction time of 30 min at 22° C. The concentration of MKNK1 was adjusted depending of the activity of the enzyme lot and was chosen appropriate to have the assay in the linear range, typical concentrations were in the range of 0.003 μg/mL. The reaction was stopped by the addition of 5 μL of a solution of TR-FRET detection reagents (5 nM streptavidine-XL665 [Cisbio Bioassays, Codolet, France] and 1 nM anti-ribosomal protein S6 (pSer236)-antibody from Invitrogen [#44921G] and 1 nM LANCE EU-W1024 labeled ProteinG [Perkin-Elmer, product no. AD0071]) in an aqueous EDTA-solution (100 mM EDTA, 0.1% (w/v) bovine serum albumin in 50 mM HEPES pH 7.5).
The resulting mixture was incubated for 1 h at 22° C. to allow the formation of complex between the phosphorylated biotinylated peptide and the detection reagents. Subsequently the amount of phosphorylated substrate was evaluated by measurement of the resonance energy transfer from the Eu-chelate to the streptavidine-XL. Therefore, the fluorescence emissions at 620 nm and 665 nm after excitation at 350 nm were measured in a TR-FRET reader, e.g. a Rubystar (BMG Labtechnologies, Offenburg, Germany) or a Viewlux (Perkin-Elmer). The ratio of the emissions at 665 nm and at […] was taken as the measure for the amount of phosphorylated substrate. The data were normalised (enzyme reaction without inhibitor=0% inhibition, all other assay components but no enzyme=100% inhibition).

The record followed here is patent US11311520B2, “Substituted dihydroimidazopyridinediones as MKNK1 and MKNK2 inhibitors” (Bayer Pharma Aktiengesellschaft, priority 2017, dated 2022).

Sequence of human full-length MKNK1 (Q9BUB5 other isoform, or with tags, fused parts or gaps T344D): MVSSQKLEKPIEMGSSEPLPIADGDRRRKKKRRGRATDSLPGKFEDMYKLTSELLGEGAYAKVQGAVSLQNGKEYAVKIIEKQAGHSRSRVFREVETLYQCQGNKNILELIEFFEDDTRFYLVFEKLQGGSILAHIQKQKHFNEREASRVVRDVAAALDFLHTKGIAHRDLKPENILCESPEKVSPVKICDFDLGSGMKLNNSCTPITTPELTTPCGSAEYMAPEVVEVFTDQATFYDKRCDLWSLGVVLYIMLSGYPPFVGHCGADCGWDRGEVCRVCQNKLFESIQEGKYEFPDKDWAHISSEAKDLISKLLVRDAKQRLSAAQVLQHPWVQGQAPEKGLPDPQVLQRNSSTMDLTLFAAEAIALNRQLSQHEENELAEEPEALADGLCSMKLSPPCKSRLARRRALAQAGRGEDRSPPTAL

Broadly, the IC50 is the midpoint of a concentration-inhibition curve. Regarding `Cc1cc(Nc2ncnc3ccccc23)c(=O)n2c1C(=O)NC21CS(=O)(=O)C1` [Example 182, 8-methyl-6-(quinazolin-4-ylamino)-2H-spiro[imidazo[1,5-a]pyridine-3,3′-thietane]-1,5-dione 1′,1′-dioxide], the IC50 came out at 261 nM.

With `Cc1cc(Nc2ncnc3scnc23)c(=O)n2c1C(=O)NC21CCC(F)(F)CC1` [Example 101, 4,4-Difluoro-8′-methyl-6′-([1,3]thiazolo[5,4-d]pyrimidin-7-ylamino)-2′H-spiro[cyclohexane-1,3′-imidazo[1,5-a]pyridine]-1′,5′-dione], the half-maximal inhibitory concentration (IC50) amounted to 187 nM.

In turn, `Cc1cc(Nc2ncnc3c2ncn3[C@H]2O[C@@H](CO)[C@H](O)[C@H]2O)c(=O)n2c1C(=O)NC21CCCCC1` [Example 47, N-[9-(beta-L-Arabinofuranosyl)-9H-purin-6-yl]-8′-methyl-1′,5′-dioxo-1′,5′-dihydro-2′H-spiro[cyclohexane-1,3′-imidazo[1,5-a]pyridin]-6′-amine] came in with an IC50 of 47.2 nM.

`Cc1cc(Nc2ncnc3sc(C(=O)N(C)C)cc23)c(=O)n2c1C(=O)NC21CCCCC1` [Example 10, N,N-Dimethyl-4-[(8′-methyl-1′,5′-dioxo-1′,5′-dihydro-2′H-spiro[cyclohexane-1,3′-imidazo[1,5-a]pyridin]-6′-yl)amino]thieno[2,3-d]pyrimidine-6-carboxamide] returned a concentration for half-maximal inhibition (IC50) of 17.1 nM.

As for `Cc1cc(Nc2ncnc3sc(C(=O)N4CC(N)C4)cc23)c(=O)n2c1C(=O)NC21CCC(F)(F)CC1` [Example 84, 6′-({6-[(3-Aminoazetidin-1-yl)carbonyl]thieno[2,3-d]pyrimidin-4-yl}amino)-4,4-difluoro-8′-methyl-2′H-spiro[cyclohexane-1,3′-imidazo[1,5-a]pyridine]-1′,5′-dione], the IC50 came out at 10.8 nM.

Consider `Cc1cc(Nc2ncnc3c2CN(C(=O)OC(C)(C)C)C3)c(=O)n2c1C(=O)NC21CCCCC1` [Example 35, tert-Butyl 4-[(8′-methyl-1′,5′-dioxo-1′,5′-dihydro-2′H-spiro[cyclohexane-1,3′-imidazo[1,5-a]pyridin]-6′-yl)amino]-5,7-dihydro-6H-pyrrolo[3,4-d]pyrimidine-6-carboxylate], for which the IC50 worked out at 4.1 nM.

Turning to `Cc1cc(Nc2ncnc3sc(C(=O)N(C)CCN(C)C)cc23)c(=O)n2c1C(=O)NC21CCCC1` [Example 60, N-[2-(Dimethylamino)ethyl]-N-methyl-4-[(8′-methyl-1′,5′-dioxo-1′,5′-dihydro-2′H-spiro[cyclopentane-1,3′-imidazo[1,5-a]pyridin]-6′-yl)amino]thieno[2,3-d]pyrimidine-6-carboxamide], the IC50 was 6.3 nM.

Consider `Cc1cc(Nc2ncnc3[nH]ccc23)c(=O)n2c1C(=O)NC21CCC(O)(C(F)(F)F)CC1` (stereo not drawn) [Example 128, 4-Hydroxy-8′-methyl-6′-(7H-pyrrolo[2,3-d]pyrimidin-4-ylamino)-4-(trifluoromethyl)-2′H-spiro[cyclohexane-1,3′-imidazo[1,5-a]pyridine]-1′,5′-dione], for which the half-inhibitory concentration (IC50) was 1 nM.

The molecule `Cc1cc(Nc2ncnc3sc(C(=O)N4C[C@H]5C[C@@H]4CO5)cc23)c(=O)n2c1C(=O)NC21CCC(F)(F)CC1` [Example 88, 4,4-Difluoro-8′-methyl-6′-({6-[(1R,4R)-2-oxa-5-azabicyclo[2.2.1]hept-5-ylcarbonyl]thieno[2,3-d]pyrimidin-4-yl}amino)-2′H-spiro[cyclohexane-1,3′-imidazo[1,5-a]pyridine]-1′,5′-dione] registered an IC50 of 13.5 nM.

For `Cc1cc(Nc2ncnc3sc(C(=O)N4CC[C@@H](N(C)C)C4)cc23)c(=O)n2c1C(=O)NC21CCCCC1` [Example 29, 6′-[(6-{[(3R)-3-(Dimethylamino)pyrrolidin-1-yl]carbonyl}thieno[2,3-d]pyrimidin-4-yl)amino]-8′-methyl-2′H-spiro[cyclohexane-1,3′-imidazo[1,5-a]pyridine]-1′,5′-dione], 2.9 nM corresponded to half-maximal inhibition (IC50).

`Cc1cc(Nc2ncnc3[nH]ccc23)c(=O)n2c1C(=O)NC21CCCCC1` [Example 6, 8′-Methyl-6′-(7H-pyrrolo[2,3-d]pyrimidin-4-ylamino)-2′H-spiro[cyclohexane-1,3′-imidazo[1,5-a]pyridine]-1′,5′-dione]: the IC50 was 0.3 nM.

Molecule `Cc1cc(Nc2ncnc3[nH]ccc23)c(=O)n2c1C(=O)NC21CCS(=O)(=O)CC1` [Example 198, 8-methyl-6-(7H-pyrrolo[2,3-d]pyrimidin-4-ylamino)-2′,3′,5′,6′-tetrahydro-2H-spiro[imidazo[1,5-a]pyridine-3,4′-thiopyran]-1,5-dione 1′,1′-dioxide] returned an IC50 of 1.1 nM.

`CCOC(=O)N1Cc2ncnc(Nc3cc(C)c4n(c3=O)C3(CCCCC3)NC4=O)c2C1` [Example 76, Ethyl 4-[(8′-methyl-1′,5′-dioxo-1′,5′-dihydro-2′H-spiro[cyclohexane-1,3′-imidazo[1,5-a]pyridin]-6′-yl)amino]-5,7-dihydro-6H-pyrrolo[3,4-d]pyrimidine-6-carboxylate] displayed an IC50 of 17.7 nM.

Consider `Cc1cc(Nc2ncnc3scnc23)c(=O)n2c1C(=O)NC21CCCC1` [Example 100, 8′-Methyl-6′-([1,3]thiazolo[5,4-d]pyrimidin-7-ylamino)-2′H-spiro[cyclopentane-1,3′-imidazo[1,5-a]pyridine]-1′,5′-dione], for which 70.5 nM corresponded to half-maximal inhibition (IC50). This IC50 lies about 4-fold higher than the previous one.

`Cc1cc(Nc2ncnc3sc(C(=O)NCCN(C)C)cc23)c(=O)n2c1C(=O)NC2(C)C` [Example 137, N-[2-(Dimethylamino)ethyl]-4-[(3,3,8-trimethyl-1,5-dioxo-1,2,3,5-tetrahydroimidazo[1,5-a]pyridin-6-yl)amino]thieno[2,3-d]pyrimidine-6-carboxamide] returned an IC50 of 21.1 nM.

`Cc1cc(Nc2ncnc3cccc(C)c23)c(=O)n2c1C(=O)N[C@]21CC[C@@](O)(C(F)(F)F)CC1` [Example 188, (cis)-4-hydroxy-8′-methyl-6′-[(5-methylquinazolin-4-yl)amino]-4-(trifluoromethyl)-2′H-spiro[cyclohexane-1,3′-imidazo[1,5-a]pyridine]-1′,5′-dione] registered a half-maximal inhibitory concentration (IC50) of 47 nM.

Consider `Cc1cc(Nc2ncnc3sc(C(=O)NCCN(C)C)cc23)c(=O)n2c1C(=O)NC21CCCCC1` [Example 25, N-[2-(Dimethylamino)ethyl]-4-[(8′-methyl-1′,5′-dioxo-1′,5′-dihydro-2′H-spiro[cyclohexane-1,3′-imidazo[1,5-a]pyridin]-6′-yl)amino]thieno[2,3-d]pyrimidine-6-carboxamide], for which the IC50 was 1.9 nM.

Regarding `Cc1cc(Nc2ncnc3[nH]ccc23)c(=O)n2c1C(=O)NC21CSC1` [Example 178, 8-methyl-6-[(7H-pyrrolo[2,3-d]pyrimidin-4-yl)amino]-2H-spiro[imidazo[1,5-a]pyridine-3,3′-thietane]-1,5-dione], the midpoint of inhibition, the IC50, lay at 1.1 nM.

For `Cc1cc(Nc2ncnc3sc(C(N)=O)cc23)c(=O)n2c1C(=O)NC21CCCCC1` [Example 97, 4-[(8′-Methyl-1′,5′-dioxo-1′,5′-dihydro-2′H-spiro[cyclohexane-1,3′-imidazo[1,5-a]pyridin]-6′-yl)amino]thieno[2,3-d]pyrimidine-6-carboxamide], the IC50 was determined as 5.1 nM.

As for `Cc1cc(Nc2ncnc3sc(C(=O)N4C[C@@H]5C[C@H]4CO5)cc23)c(=O)n2c1C(=O)NC21CCCCC1` [Example 66, 8′-Methyl-6′-({6-[(1S,4S)-2-oxa-5-azabicyclo[2.2.1]hept-5-ylcarbonyl]thieno[2,3-d]pyrimidin-4-yl}amino)-2′H-spiro[cyclohexane-1,3′-imidazo[1,5-a]pyridine]-1′,5′-dione], the midpoint of inhibition, the IC50, lay at 9 nM.

`Cc1cc(Nc2ncnc3[nH]cnc23)c(=O)n2c1C(=O)NC21CCC1` [Example 159, 8′-Methyl-6′-(9H-purin-6-ylamino)-2′H-spiro[cyclobutane-1,3′-imidazo[1,5-a]pyridine]-1′,5′-dione] came in with an IC50 of 2.1 nM.
